The results in this text go back to publication PMC7774088 (ACS Omega, 2020).

Assay [1] concerns the target Stp1 (Staphylococcus aureus, UniProt A0A0H2XF73, P152A). The assay is described as follows: biochemical.
Assay [2] has as its target T1, Stp1 (Staphylococcus aureus, UniProt A0A0H2XF73).
T1 sequence (A0A0H2XF73 1-247): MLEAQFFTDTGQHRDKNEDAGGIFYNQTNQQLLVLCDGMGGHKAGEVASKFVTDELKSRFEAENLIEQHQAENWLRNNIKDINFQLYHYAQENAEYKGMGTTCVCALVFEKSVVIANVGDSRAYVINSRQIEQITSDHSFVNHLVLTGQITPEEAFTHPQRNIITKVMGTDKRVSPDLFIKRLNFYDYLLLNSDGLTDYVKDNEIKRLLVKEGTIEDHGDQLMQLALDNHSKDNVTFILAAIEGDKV
The assay is described as follows: pNPP phosphatase assay, absorbance […] nm. The format is biochemical. Conditions: read-out: % inhibition at 32 μg/mL.

Assay [3] addresses Stp1 (Staphylococcus aureus, UniProt A0A0H2XF73, F179A). The assay is described as follows: biochemical.
Assay [4] addresses Stp1 (Staphylococcus aureus, UniProt A0A0H2XF73, I164A). The assay is described as follows: biochemical.
The target of assay [5] is T1, Stp1. The assay is described as follows: fluorescence quenching. The class given is binding.
For assay [6], the target named is Stp1 (Staphylococcus aureus, UniProt A0A0H2XF73, Y199A). The assay is described as follows: biochemical.

Each structure is given as a SMILES string.

As usually defined, the Kd is the free concentration of one partner at which half of the binding sites on the other are occupied at equilibrium, for simple one-to-one binding. For the compound `O=C(O[C@@H]1O[C@@H]2COC(=O)c3cc(O)c(O)c(O)c3-c3c(cc(O)c(O)c3O)C(=O)O[C@H]([C@H]1O)[C@@H]2O)c1cc(O)c(O)c(O)c1` [corilagin], the Kd was 7250 nM in assay [1]; 2560 nM in assay [3]; 8850 nM in assay [4]; 1940 nM in assay [5]; 2870 nM in assay [6]. Besides, the inhibition at 32 µg/mL in assay [2] was greater than 90%.
